Assay results as given in patent US6670348B1, “Methods and compositions for destruction of selected proteins” (Sloan-Kettering Institute for Cancer Research, priority 1997, dated 2003).

What was measured:
PI3 kinase = test: Inhibition of PI3 kinase activity; assay type: biochemical; settings: FIG. 12
Raf-1 [1] = test: Relative activity of FIG. 9A-9G compounds; assay type: cell-based; parameters: key: ++++: most active; −: minimal activity; settings: Table 4
Description: The compounds of FIGS. 9A-9G have been tested for activity with respect to erbB2 (Her2), raf-1 and estrogen receptors.

ErbB2 [2] = test: Immunoblotting for receptor presence in LNCaP prostate cancer cells; assay type: cell-based; parameters: key: +: the receptor was detected by immunoblotting; −: it was not detectable; ±: a weak or equivocal result; settings: Table 3
Raf-1 [3] = test: Immunoblotting for receptor presence in MCF-7 cells exposed to compound; assay type: cell-based; parameters: key: +: the receptor was detected by immunoblotting; −: it was not detectable; ±: a weak or equivocal result
[4] = tested on: insulin-like growth factor 1 receptor (IGF1-R); test: as above; assay type: cell-based; parameters: key to IGFI-R detected by immunoblotting: +: the receptor was detected by immunoblotting; −: it was not detectable; ±: a weak or equivocal result; settings: for IGFI-R detected by immunoblotting: Table 2
androgen receptor = test: Immunoblotting for receptor presence in LNCaP prostate cancer cells; assay type: cell-based; parameters: key to androgen receptor detected by immunoblotting: +: the receptor was detected by immunoblotting; −: it was not detectable; ±: a weak or equivocal result; settings: for androgen receptor detected by immunoblotting: Table 3
ErbB2 [5] = test: Immunoblotting for receptor presence in MCF-7 cells exposed to compound; assay type: cell-based; parameters: key: +: the receptor was detected by immunoblotting; −: it was not detectable; ±: a weak or equivocal result
estrogen receptor [6] = target: T1, estrogen receptor (Homo sapiens, UniProt P03372); test: as above; assay type: cell-based
T1 construct: testing for the presence of the receptor using receptor-specific antibodies in an immunoblotting experiment; endogenous in cells; host or cells: MCF-7
T1 sequence (P03372 whole entry): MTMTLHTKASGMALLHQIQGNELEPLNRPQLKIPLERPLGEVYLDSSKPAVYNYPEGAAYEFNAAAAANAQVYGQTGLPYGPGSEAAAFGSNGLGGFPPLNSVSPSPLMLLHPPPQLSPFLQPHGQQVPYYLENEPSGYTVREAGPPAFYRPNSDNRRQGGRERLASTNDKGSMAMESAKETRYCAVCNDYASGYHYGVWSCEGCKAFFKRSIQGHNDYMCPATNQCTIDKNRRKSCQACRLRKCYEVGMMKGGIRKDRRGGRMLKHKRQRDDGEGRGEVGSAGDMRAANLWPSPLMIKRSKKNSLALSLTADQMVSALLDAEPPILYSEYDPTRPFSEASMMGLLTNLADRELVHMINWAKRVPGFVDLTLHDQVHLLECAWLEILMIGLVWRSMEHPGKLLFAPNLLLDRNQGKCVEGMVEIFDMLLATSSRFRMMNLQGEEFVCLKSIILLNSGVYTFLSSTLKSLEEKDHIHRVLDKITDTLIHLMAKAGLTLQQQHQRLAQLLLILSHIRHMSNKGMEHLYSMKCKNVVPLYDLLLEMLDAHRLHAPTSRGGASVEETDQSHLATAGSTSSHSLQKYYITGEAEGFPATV
Description: (§1) The effects of these compounds on receptor of various types were evaluated by exposing MCF-7 breast cancer cells, in vitro, to 1 μM levels of the compounds for varying periods of time, and then testing for the presence of the receptor using receptor-specific antibodies in an immunoblotting experiment.

estrogen receptor [7] = target: T1, estrogen receptor; test: Relative activity of FIG. 9A-9G compounds; assay type: cell-based; parameters: key to the marks not given beside the values; settings: Table 4
[8] = tested on: estrogen receptors and ErbB2 receptors; test: Selectivity across receptor panel, immunoblotting in MCF-7 cells; assay type: cell-based; settings: 1 μM
Description: as §1, with “experiment. The results are summarized in Table 1, where GM-4-E2 indicates a geldanamycin-estradiol compound with a 4-carbon tether.” for “experiment.”

ErbB2 [9] = test: Immunoblotting of LN-CAP cells exposed to GM or GM-T (Example 2); assay type: cell-based; settings: immunoblotting over time, geldanamycin at 0.25 and 1 ug/ml, FIG. 8A
[10] = MCF-7 cells, 1 μM, exposure time 0 hours, Table 1
[11] = MCF-7 cells, 1 μM, exposure time 3 hours, Table 1
[12] = MCF-7 cells, 1 μM, exposure time 6 hours, Table 1
[13] = MCF-7 cells, 1 μM, exposure time 12 hours, Table 1
[14] = MCF-7 cells, 1 μM, exposure time 24 hours, Table 1
[15] = repeat experiment (Example 5), exposure time 0 hours, Table 2
[16] = repeat experiment (Example 5), exposure time 6 hours, Table 2
[17] = repeat experiment (Example 5), exposure time 12 hours, Table 2
[18] = repeat experiment (Example 5), exposure time 24 hours, Table 2
[19] = Example 5, exposure time 0 hours
[20] = Example 5, exposure time 6 hours
[21] = Example 5, exposure time 12 hours
[22] = Example 5, exposure time 24 hours

CCCCCCN(C)C=C1C(=O)OC(COC)C2(C)C1=C(O)C(=O)C1=C2C(OC(C)=O)CC2(C)C(=O)CCC12 (stereo not drawn) [E-analog 2]
inhibition of PI3 kinase activity (PI3 kinase): inhibits PI3 kinase activity

COC1C=CC=C(C)C(=O)NC2=CC(=O)C(NCCCCCCC3(O)CCC4C5CCc6cc(O)ccc6C5CCC43C)=C(CC(C)CC(OC)C(O)C(C)C=C(C)C1OC(N)=O)C2=O (stereo not drawn) [FIG. 9E]
relative activity, raf-1 (Raf-1 [1]): −

COC1C=CC=C(C)C(=O)NC2=CC(=O)C(NCCCCNCCCCCCC3(O)CCC4C5CCc6cc(O)ccc6C5CCC43C)=C(CC(C)CC(OC)C(O)C(C)C=C(C)C1OC(N)=O)C2=O (stereo not drawn) [FIG. 9F]
relative activity, raf-1 (Raf-1 [1]): −

COC1C=CC=C(C)C(=O)NC2=CC(=O)C(NCCCCCCN(C)CCCCCCC3(O)CCC4C5CCc6cc(O)ccc6C5CCC43C)=C(CC(C)CC(OC)C(O)C(C)C=C(C)C1OC(N)=O)C2=O (stereo not drawn) [FIG. 9G]
relative activity, raf-1 (Raf-1 [1]): −

COC1=C2C[C@@H](C)C[C@H](OC)[C@H](O)[C@@H](C)/C=C(\C)[C@H](OC(N)=O)[C@@H](OC)/C=C\C=C(/C)C(=O)NC(=CC1=O)C2=O [GM, geldanamycin, reference compound]
ErbB2 detected by immunoblotting (ErbB2 [2]; exposure time 0 hours): +
ErbB2 detected by immunoblotting (ErbB2 [2]; exposure time 3 hours): +
ErbB2 detected by immunoblotting (ErbB2 [2]; exposure time 6 hours): −
ErbB2 detected by immunoblotting (ErbB2 [2]; exposure time 12 hours): −
ErbB2 detected by immunoblotting (ErbB2 [2]; exposure time 24 hours): −
Raf-1 detected by immunoblotting (Raf-1 [3]; [10]): +
Raf-1 detected by immunoblotting (Raf-1 [3]; [11]): +
Raf-1 detected by immunoblotting (Raf-1 [3]; [12]): +
Raf-1 detected by immunoblotting (Raf-1 [3]; [13]): −
Raf-1 detected by immunoblotting (Raf-1 [3]; [14]): −
Raf-1 detected by immunoblotting (Raf-1 [3]; [15]): +
Raf-1 detected by immunoblotting (Raf-1 [3]; [16]): +
Raf-1 detected by immunoblotting (Raf-1 [3]; [17]): −
Raf-1 detected by immunoblotting (Raf-1 [3]; [18]): −
IGFI-R detected by immunoblotting [4, 19]: +
IGFI-R detected by immunoblotting [4, 20]: +
IGFI-R detected by immunoblotting [4, 21]: +
IGFI-R detected by immunoblotting [4, 22]: −
androgen receptor detected by immunoblotting (androgen receptor; exposure time 0 hours): +
androgen receptor detected by immunoblotting (androgen receptor; exposure time 3 hours): +
androgen receptor detected by immunoblotting (androgen receptor; exposure time 6 hours): +
androgen receptor detected by immunoblotting (androgen receptor; exposure time 12 hours): +
androgen receptor detected by immunoblotting (androgen receptor; exposure time 24 hours): −
ErbB2 detected by immunoblotting (ErbB2 [5]; [10]): +
ErbB2 detected by immunoblotting (ErbB2 [5]; [11]): −
ErbB2 detected by immunoblotting (ErbB2 [5]; [12]): −
ErbB2 detected by immunoblotting (ErbB2 [5]; [13]): −
ErbB2 detected by immunoblotting (ErbB2 [5]; [14]): −
ErbB2 detected by immunoblotting (ErbB2 [5]; [15]): +
ErbB2 detected by immunoblotting (ErbB2 [5]; [16]): −
ErbB2 detected by immunoblotting (ErbB2 [5]; [17]): −
ErbB2 detected by immunoblotting (ErbB2 [5]; [18]): −

COC1C=CC=C(C)C(=O)NC2=CC(=O)C(NCC=CCC3CC4C5CCc6cc(O)ccc6C5CCC4(C)C3O)=C(CC(C)CC(OC)C(O)C(C)C=C(C)C1OC(N)=O)C2=O (stereo not drawn) [GM-4-E2]
relative activity, raf-1 (Raf-1 [1]): −
ErbB2 detected by immunoblotting (ErbB2 [2]; exposure time 0 hours): +
ErbB2 detected by immunoblotting (ErbB2 [2]; exposure time 3 hours): +
ErbB2 detected by immunoblotting (ErbB2 [2]; exposure time 6 hours): +
ErbB2 detected by immunoblotting (ErbB2 [2]; exposure time 12 hours): −
ErbB2 detected by immunoblotting (ErbB2 [2]; exposure time 24 hours): −
Raf-1 detected by immunoblotting (Raf-1 [3]; [10]): +
Raf-1 detected by immunoblotting (Raf-1 [3]; [11]): +
Raf-1 detected by immunoblotting (Raf-1 [3]; [12]): +
Raf-1 detected by immunoblotting (Raf-1 [3]; [13]): +
Raf-1 detected by immunoblotting (Raf-1 [3]; [14]): +
Raf-1 detected by immunoblotting (Raf-1 [3]; [15]): +
Raf-1 detected by immunoblotting (Raf-1 [3]; [16]): +
Raf-1 detected by immunoblotting (Raf-1 [3]; [17]): +
Raf-1 detected by immunoblotting (Raf-1 [3]; [18]): +
estrogen receptor detected by immunoblotting (estrogen receptor [6]; [10]): +
estrogen receptor detected by immunoblotting (estrogen receptor [6]; [11]): ±
estrogen receptor detected by immunoblotting (estrogen receptor [6]; [12]): −
estrogen receptor detected by immunoblotting (estrogen receptor [6]; [13]): −
estrogen receptor detected by immunoblotting (estrogen receptor [6]; [14]): −
estrogen receptor detected by immunoblotting (estrogen receptor [6]; [15]): +
estrogen receptor detected by immunoblotting (estrogen receptor [6]; [16]): −
estrogen receptor detected by immunoblotting (estrogen receptor [6]; [17]): −
estrogen receptor detected by immunoblotting (estrogen receptor [6]; [18]): −
IGFI-R detected by immunoblotting [4, 19]: +
IGFI-R detected by immunoblotting [4, 20]: +
IGFI-R detected by immunoblotting [4, 21]: +
IGFI-R detected by immunoblotting [4, 22]: +
effect on IGF1-R compared with geldanamycin alone ([4]; Example 5, in words): less injurious to IGF1-R than geldanamycin alone
relative activity, estrogen receptor (estrogen receptor [7]): ++++
androgen receptor detected by immunoblotting (androgen receptor; exposure time 0 hours): +
androgen receptor detected by immunoblotting (androgen receptor; exposure time 3 hours): +
androgen receptor detected by immunoblotting (androgen receptor; exposure time 6 hours): +
androgen receptor detected by immunoblotting (androgen receptor; exposure time 12 hours): +
androgen receptor detected by immunoblotting (androgen receptor; exposure time 24 hours): +
destruction of androgen receptors (androgen receptor; in words): does not
selectivity for estrogen receptors and ErbB2 receptors compared to geldanamycin alone [8]: most pronounced
ErbB2 detected by immunoblotting (ErbB2 [5]; [10]): +
ErbB2 detected by immunoblotting (ErbB2 [5]; [11]): ±
ErbB2 detected by immunoblotting (ErbB2 [5]; [12]): −
ErbB2 detected by immunoblotting (ErbB2 [5]; [13]): −
ErbB2 detected by immunoblotting (ErbB2 [5]; [14]): −
ErbB2 detected by immunoblotting (ErbB2 [5]; [15]): +
ErbB2 detected by immunoblotting (ErbB2 [5]; [16]): ±
ErbB2 detected by immunoblotting (ErbB2 [5]; [17]): −
ErbB2 detected by immunoblotting (ErbB2 [5]; [18]): −

COC1C=CC=C(C)C(=O)NC2=CC(=O)C(NCCCCNCCCCCCC3(O)CCC4C5CCc6cc(O)ccc6C5CCC43C)=C(CC(C)CC(OC)C(O)C(C)C=C(C)C1OC(N)=O)C2=O (stereo not drawn) [GM-10-E2]
Raf-1 detected by immunoblotting (Raf-1 [3]; [10]): +
Raf-1 detected by immunoblotting (Raf-1 [3]; [11]): +
Raf-1 detected by immunoblotting (Raf-1 [3]; [12]): +
Raf-1 detected by immunoblotting (Raf-1 [3]; [13]): +
Raf-1 detected by immunoblotting (Raf-1 [3]; [14]): +
estrogen receptor detected by immunoblotting (estrogen receptor [6]; [10]): +
estrogen receptor detected by immunoblotting (estrogen receptor [6]; [11]): +
estrogen receptor detected by immunoblotting (estrogen receptor [6]; [12]): +
estrogen receptor detected by immunoblotting (estrogen receptor [6]; [13]): ±
estrogen receptor detected by immunoblotting (estrogen receptor [6]; [14]): +
ErbB2 detected by immunoblotting (ErbB2 [5]; [10]): +
ErbB2 detected by immunoblotting (ErbB2 [5]; [11]): +
ErbB2 detected by immunoblotting (ErbB2 [5]; [12]): +
ErbB2 detected by immunoblotting (ErbB2 [5]; [13]): +
ErbB2 detected by immunoblotting (ErbB2 [5]; [14]): −

COC1C=CC=C(C)C(=O)NC2=CC(=O)C(NCCCCCCN(C)CCCCCCC3(O)CCC4C5CCc6cc(O)ccc6C5CCC43C)=C(CC(C)CC(OC)C(O)C(C)C=C(C)C1OC(N)=O)C2=O (stereo not drawn) [GM-13-E2]
Raf-1 detected by immunoblotting (Raf-1 [3]; [10]): +
Raf-1 detected by immunoblotting (Raf-1 [3]; [11]): +
Raf-1 detected by immunoblotting (Raf-1 [3]; [12]): +
Raf-1 detected by immunoblotting (Raf-1 [3]; [13]): +
Raf-1 detected by immunoblotting (Raf-1 [3]; [14]): +
estrogen receptor detected by immunoblotting (estrogen receptor [6]; [10]): +
estrogen receptor detected by immunoblotting (estrogen receptor [6]; [11]): +
estrogen receptor detected by immunoblotting (estrogen receptor [6]; [12]): +
estrogen receptor detected by immunoblotting (estrogen receptor [6]; [13]): ±
estrogen receptor detected by immunoblotting (estrogen receptor [6]; [14]): −
ErbB2 detected by immunoblotting (ErbB2 [5]; [10]): +
ErbB2 detected by immunoblotting (ErbB2 [5]; [11]): +
ErbB2 detected by immunoblotting (ErbB2 [5]; [12]): +
ErbB2 detected by immunoblotting (ErbB2 [5]; [13]): +
ErbB2 detected by immunoblotting (ErbB2 [5]; [14]): −

COC1C=CC=C(C)C(=O)NC2=CC(=O)C(NCCCCCCC#CC3(O)CCC4C5CCC6=CC(=O)CCC6(C)C5CCC43C)=C(CC(C)CC(OC)C(O)C(C)C=C(C)C1OC(N)=O)C2=O (stereo not drawn) [GM-T, 17-testosterone-tethered-17-demethoxy-17-GM]
reduction of levels of ErbB2 (ErbB2 [9]): the least reduction was observed

CCCCCCNC=C1C(=O)OC(COC)C2(C)C1=C(O)C(=O)C1=C2C(OC(C)=O)CC2(C)C(=O)CCC12 (stereo not drawn) [Z-analog 1]
inhibition of PI3 kinase activity (PI3 kinase): inactive
